Laboratory results: US20250025417A1, “ORAL ABIRATERONE FORMULATIONS” (PROPELLA THERAPEUTICS, INC., priority 2021, published 2025)

Key:
[1] = Forms A, B, and C
[2] = Solubility of abiraterone decanoate in lipid-based vehicles at 25° C. (HPLC); type: physicochemical; details: for Solubility (mg/g) at 25° C.: Day 13 results; for Solb (mg/g) at 25° C.: average of day 2 and day 7
Method: In this example, solubility of abiraterone decanoate in the following four vehicles were tested. Each vehicle has a distinctive base, namely, medium chain trigylceride (MCT)/polyoxylglyceride, long chain (LC) monodiglyceride, and two propylene glycol (PG) monoesters, caprylic and lauryl. • Vehicle 1: MCT/Polyoxylglyceride based: 20% Kolliphor RH40/14% Plurol Oleique CC 497/33% Labrafil 1944 CS/33% Labrafac Lipophile WL 1349 • Vehicle 2: PG Monoester based: 20% Kolliphor RH 40/14% Plurol Oleique CC 497/66% Lauroglycol 90 • Vehicle 3: PG Monoester based: 20% Kolliphor RH40/14% Plurol Oleique CC 497/66% Capmul PG-8 • Vehicle 4: LC Monodiglyceride based: 20% Kolliphor RH40/14% Plurol Oleique CC 497/66% Maisine CC
Solubilities of abiraterone decanoate in different vehicles were tested following the procedure below: • Prepare 5 g of each vehicle by weight • In a 4-mL vial, weigh about 350 mg drug and then add 2 mL of vehicle • Sonicate and vortex all samples, then place on a rotator at 25° C. • At the end of the day check the samples to see if the drug completely dissolved. If so, use wax paper to transfer additional drug, record the additional amount added. • After 2-3 days, remove about 0.5 mL from each sample and filter using a microcentrifuge. […] Results were obtained for samples after 2 days and after 7 days.
The vehicles being tested have the following compositions: • Vehicle 1 (see Example 2): 20% Kolliphor RH40/14% Plurol Oleique CC 497/33% Labrafil 1944 CS/33% Labrafac Lipophile WL 1349, used as a control. • Vehicle 5: 20% Kolliphor RH40/14% Plurol Oleique CC 497/33% Maisine CC/33% Labrafac Lipophile WL 1349* • Vehicle 6: 20% Kolliphor RH40/14% Plurol Oleique CC 497/16% Labrafil 1944 CS/30% Maisine CC/20% Labrafac Lipophile WL 1349 • Vehicle 7: 20% Kolliphor RH40/14% Plurol Oleique CC 497/16% Labrafil 1944 CS/30% Capmul PG-8/20% Labrafac Lipophile WL 1349 • Vehicle 8: 20% Kolliphor RH40/14% Plurol Oleique CC 497/16% Labrafil 1944 CS/30% Capmul PG-12/20% Labrafac Lipophile WL 1349 • Vehicle 9: 20% Kolliphor RH40/14% Plurol Oleique CC 497/16% Labrafil 1944 CS/30% Labrafil M 2130 CS/20% Labrafac Lipophile WL 1349
The procedures for preparing samples and solubility testing are similar to those described in Example 2.

CCCCCCCCCC(=O)O[C@H]1CC[C@@]2(C)C(=CC[C@@H]3[C@@H]2CC[C@]2(C)C(c4cccnc4)=CC[C@@H]32)C1 [abiraterone decanoate]
DVS Max H2O uptake (wt %) [1]: N/A - non-hygroscopic
solubility in lipid based vehicles (in words) ([2]; Examples 2 and 3): good solubilities
Solubility (mg/g) at 25° C. ([2]; Vehicle 1 (control)): 101.1 mg/g
Solb (mg/g) at 25° C. ([2]; Vehicle 1: 20% Kolliphor RH40/14% Plurol Oleique CC 497/33% Labrafil 1944 CS/33% Labrafac Lipophile WL 1349): 88.5 mg/g
Solb (mg/g) at 25° C. ([2]; Vehicle 2: 20% Kolliphor RH 40/14% Plurol Oleique CC 497/66% Lauroglycol 90): 143.9 mg/g
Solb (mg/g) at 25° C. ([2]; Vehicle 3: 20% Kolliphor RH40/14% Plurol Oleique CC 497/66% Capmul PG-8): 149.2 mg/g
Solb (mg/g) at 25° C. ([2]; Vehicle 4: 20% Kolliphor RH40/14% Plurol Oleique CC 497/66% Maisine CC): 110.2 mg/g
Solubility (mg/g) at 25° C. ([2]; Vehicle 5: 20% Kolliphor RH40/14% Plurol Oleique CC 497/33% Maisine CC/33% Labrafac Lipophile WL 1349): 111.5 mg/g
Solubility (mg/g) at 25° C. ([2]; Vehicle 6: 20% Kolliphor RH40/14% Plurol Oleique CC 497/16% Labrafil 1944 CS/30% Maisine CC/20% Labrafac Lipophile WL 1349): 114.3 mg/g
Solubility (mg/g) at 25° C. ([2]; Vehicle 7: 20% Kolliphor RH40/14% Plurol Oleique CC 497/16% Labrafil 1944 CS/30% Capmul PG-8/20% Labrafac Lipophile WL 1349): 141.2 mg/g
Solubility (mg/g) at 25° C. ([2]; Vehicle 8: 20% Kolliphor RH40/14% Plurol Oleique CC 497/16% Labrafil 1944 CS/30% Capmul PG-12/20% Labrafac Lipophile WL 1349): 132.9 mg/g
